1 compound from ChEMBL document CHEMBL4823324, “Discovery of BMS-986318, a Potent Nonbile Acid FXR Agonist for the Treatment of Nonalcoholic Steatohepatitis” (ACS Med Chem Lett, 2021) can be followed below.

The structures appear in SMILES notation.

In data set [1] the target is T1, Oxysterols receptor LXR-alpha (Homo sapiens, UniProt Q13133).
T1 sequence (Q13133 whole entry): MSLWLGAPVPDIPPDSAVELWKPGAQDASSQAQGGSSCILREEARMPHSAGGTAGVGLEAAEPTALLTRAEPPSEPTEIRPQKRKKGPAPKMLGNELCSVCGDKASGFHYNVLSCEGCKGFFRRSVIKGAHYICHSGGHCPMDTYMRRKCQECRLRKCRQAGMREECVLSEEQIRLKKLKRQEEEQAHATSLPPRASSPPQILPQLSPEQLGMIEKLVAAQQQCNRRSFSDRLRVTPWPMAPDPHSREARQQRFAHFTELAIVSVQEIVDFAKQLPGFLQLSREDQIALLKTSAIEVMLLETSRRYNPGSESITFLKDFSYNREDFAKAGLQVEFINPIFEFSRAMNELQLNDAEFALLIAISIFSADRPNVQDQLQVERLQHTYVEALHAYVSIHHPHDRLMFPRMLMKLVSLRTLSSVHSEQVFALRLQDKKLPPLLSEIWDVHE
In words: Activation of human LXRalpha co-expressed with TK-luciferase reporter in African green monkey CV-1 cells incubated for overnight by Steady-Glo luciferase reporter gene based luminescence analysis. The format is cell-based.

Data set [2] in a line: Half life in C57B6 mouse at 2 mg/kg, po administered as suspension. The format is ADME, organism-based. The settings on record: in vivo.
A short description of data set [3]: Half life in C57B6 mouse at 1 mg/kg, iv. The format is ADME, organism-based. The settings on record: in vivo.
Data set [4] deals with T2, Nuclear receptor ROR-gamma (Homo sapiens, UniProt P51449).
T2 sequence (P51449 whole entry): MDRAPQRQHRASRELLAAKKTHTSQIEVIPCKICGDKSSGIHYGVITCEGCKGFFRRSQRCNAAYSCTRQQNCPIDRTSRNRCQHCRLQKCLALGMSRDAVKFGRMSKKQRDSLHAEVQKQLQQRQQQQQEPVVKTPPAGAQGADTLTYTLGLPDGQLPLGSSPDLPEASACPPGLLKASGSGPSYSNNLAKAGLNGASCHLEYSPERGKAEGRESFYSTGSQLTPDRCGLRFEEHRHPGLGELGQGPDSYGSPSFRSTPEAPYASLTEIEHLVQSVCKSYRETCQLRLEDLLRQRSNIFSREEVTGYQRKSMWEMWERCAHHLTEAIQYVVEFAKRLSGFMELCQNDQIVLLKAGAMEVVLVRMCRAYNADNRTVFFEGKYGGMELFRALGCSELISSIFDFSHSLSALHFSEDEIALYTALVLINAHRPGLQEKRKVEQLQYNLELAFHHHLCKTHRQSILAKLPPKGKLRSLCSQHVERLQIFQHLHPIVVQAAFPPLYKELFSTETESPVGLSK
In words: Antagonist activity at human RORgammaT co-expressed with Gal4-luciferase reporter in human Jurkat cells incubated for 18 hrs by Steady-Glo luciferase reporter based luminescence analysis. The format is cell-based. Background: A reporter such as luciferase makes a cellular process visible.

A short description of data set [5]: AUC in C57B6 mouse at 2 mg/kg, po administered as solution. The format is ADME, organism-based. More on the design: dose 2 mg/kg. The settings on record: in vivo.
For another data set, the target named is T3, Estrogen receptor (Homo sapiens, UniProt P03372).
T3 sequence (P03372 whole entry): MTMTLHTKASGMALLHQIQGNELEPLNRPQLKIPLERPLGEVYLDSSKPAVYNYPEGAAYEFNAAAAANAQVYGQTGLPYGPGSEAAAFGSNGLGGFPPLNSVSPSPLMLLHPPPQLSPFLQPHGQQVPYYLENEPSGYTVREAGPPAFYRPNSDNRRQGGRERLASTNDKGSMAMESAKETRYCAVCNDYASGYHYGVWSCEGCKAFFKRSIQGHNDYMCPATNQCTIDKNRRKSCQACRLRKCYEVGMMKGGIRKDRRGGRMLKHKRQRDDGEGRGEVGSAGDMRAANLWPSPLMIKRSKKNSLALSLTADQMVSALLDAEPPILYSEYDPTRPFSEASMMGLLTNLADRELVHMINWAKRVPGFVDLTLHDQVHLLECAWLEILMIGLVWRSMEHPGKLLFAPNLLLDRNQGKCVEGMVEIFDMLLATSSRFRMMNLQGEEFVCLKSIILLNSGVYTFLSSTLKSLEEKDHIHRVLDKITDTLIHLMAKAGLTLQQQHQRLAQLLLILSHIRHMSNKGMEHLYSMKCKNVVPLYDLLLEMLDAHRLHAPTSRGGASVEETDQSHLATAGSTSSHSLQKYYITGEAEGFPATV
Kind of data set: Activation of estrogen receptor alpha (unknown origin) by fluorescence polarization based competition assay. (In fluorescence polarisation assays a small probe gives low polarisation when free and higher when bound to something large.)

Data set [6] can be described thus: Clearance in C57B6 mouse at 1 mg/kg, iv. The format is ADME, organism-based. The settings on record: in vivo.
The nature of data set [7]: Plasma concentration in mouse at 3 mg/kg, po measured after 6 hrs. The format is ADME, organism-based.
For data set [8], the target named is T4, Nuclear receptor ROR-alpha (Homo sapiens, UniProt P35398).
T4 sequence (P35398 whole entry): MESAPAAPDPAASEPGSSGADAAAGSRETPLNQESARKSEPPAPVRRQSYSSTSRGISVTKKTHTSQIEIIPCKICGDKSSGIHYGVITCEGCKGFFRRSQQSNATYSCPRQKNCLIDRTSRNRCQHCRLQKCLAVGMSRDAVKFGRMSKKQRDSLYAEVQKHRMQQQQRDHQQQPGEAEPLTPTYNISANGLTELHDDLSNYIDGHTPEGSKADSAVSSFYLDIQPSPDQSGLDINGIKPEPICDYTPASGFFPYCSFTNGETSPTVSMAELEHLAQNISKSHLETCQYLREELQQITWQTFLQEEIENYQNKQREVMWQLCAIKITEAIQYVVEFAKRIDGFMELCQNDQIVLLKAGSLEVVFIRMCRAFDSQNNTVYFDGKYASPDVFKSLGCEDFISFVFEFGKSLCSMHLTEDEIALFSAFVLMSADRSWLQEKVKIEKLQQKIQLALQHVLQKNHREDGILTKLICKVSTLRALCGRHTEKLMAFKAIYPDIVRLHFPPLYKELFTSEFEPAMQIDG
In words: Antagonist activity at human RORalpha (272 to 557 residues) co-expressed with Gal4-luciferase reporter in human Jurkat cells incubated for 18 hrs by Steady-Glo luciferase reporter based luminescence analysis. The format is cell-based.

As for `O=C(O)c1cc(C(F)(F)F)c2cc(N3CCC4(C=C(c5c(-c6c(Cl)cncc6Cl)noc5C5CC5)C4)CC3)ccc2n1`, the EC50 (in data set [1]; at Estrogen receptor) was more than 40 µM in each case. Also, the half-life – broadly, the time needed for the level to fall by half in the phase considered – in data set [2] is 2 h; in [3] it was 2.6 h. The IC50 in data set [4] and in [8] was more than 40 µM each time. In addition, the AUC (as a rule, concentration integrated over time) in [5] was found to be 6.65 µM·h. Further, in data set [6], the clearance (as a rule, the rate of elimination divided by the concentration) was found to be 3.8 mL/min/kg. In addition, the concentration at 6 h in data set [7] stood at 37 nM.
